From patent US6596756B1, “Treatment of fibromyalgia” (Eli Lilly and Company, priority 1999, dated 2003)
Read-outs that look alike come from different tables or passages of the source.

How the values were obtained:
[1] = test system: mechanical allodynia due to the nerve ligation in rats; conditions: rat; for Allodynia Response: nerve ligation, mean ± SEM, p < 0.05 vs vehicle
Procedure: All data were analyzed using the JMP statistical program. […] Data were evaluated by one-way analysis of variance (ANOVA) and the appropriate contrasts analyzed by Tukey's test and Dunnett “t” test for two-sided comparisons.

Male Sprague-Dawley rats = conditions: rat; for Ataxia score 80 mins after drug, i.p. / Ataxia score, 30 mins after drug, i.p. / Ataxia Score, 60 mins after drug, p.o. / Ataxia score 110 mins after drug, p.o.: maximum score 40 seconds, mean ± SEM
Procedure: The tendency of duloxetine to induce ataxia or neuromuscular effects at analgesic doses was investigated using the well-known rotorod test.
(§1) Male Sprague-Dawley rats (200-250 g; Charles River, Portage, Mich.) were maintained at constant temperature and light (12 h light/12 h dark) for 4-7 days prior to the studies. Animals had free access to food and water at all times prior to the day of the experiment.
An automated accelerating rotorod (Omnitech Electronics Inc., Columbus, Ohio) connected to an IBM PC computer was utilized. For training and testing purposes, the rotorod was set up to accelerate to 17 r.p.m. in 5 seconds and maintaining that speed for 40 seconds. Rats were given 3 training trials to learn to maintain posture on the rotorod prior to the actual day of drug testing. The following day, rotorod testing was conducted both at 30 and 80 minutes for i.p. and at 60 and 110 minutes for p.o. following administration of drug or compound.
All data were analyzed using the JMP statistical program. Data are presented as means with standard errors of means (±SEM). Data were evaluated by one-way analysis of variance (ANOVA) and the appropriate contrasts analyzed by Tukey's test and Dunnett “t” test for two-sided comparisons.

[2] = test system: formalin-induced paw-licking behavior in the rat; conditions: for Early Phase (sum of time spent licking, 0 to 5 minutes) / Late Phase (sum of seconds spent licking, 15 to 40 minutes): mean ± SEM
Text: (Shibata, M., Ohkubo, T., Takahashi, H., and Inoki, R., “Modified formalin test: Characteristic biphasic pain response,” Pain (1989) 38: 347-352; and Tjolsen, A., Berge, O. G., Hunskaar, S., Rosland, J. H., and Hole, K., “The formalin test: an evaluation of the method,” Pain (1992) 51:5-17.) The effect of duloxetine on formalin-induced paw-licking behavior in the rat was investigated as an index of persistent nociceptive activation. In this test, the injection of formalin under the skin on the dorsal lateral surface of the hind paw of rats causes an immediate and intense increase in the spontaneous activity of C fiber afferents. This activation evokes a distinctly quantifiable behavior indicative of pain, such as licking, flinching, shaking or biting of the injected paw. The behavioral response to formalin is biphasic, with an early phase that is short lived, followed by an extended tonic response or late phase of persistent nociceptive activation. Mechanisms causing the late phase response, such as central sensitization of pain transmitting neurons, are currently believed to contribute to various types of persistent pains.
as §1
The formalin test was performed in custom made Plexiglas® boxes 25×25×20 cm (length×width×height) in size. A mirror placed at the back of the box allowed the unhindered observation of the formalin injected paw. Rats were acclimatized individually in the cubicles at least 1 hour prior to the experiment. All testing was conducted between 08:00 and 14:00 hr and the testing room temperature was maintained at 21-23° C. Test compound was administered 30 or 60 minutes prior to the formalin injection. Formalin (50 μl of a 5% solution in saline) was injected subcutaneously into the dorsal lateral surface of the right hind paw with a 27 gauge needle. Observation started immediately after the formalin injection. Formalin-induced pain was quantified by recording in 5 minute intervals the number of formalin injected paw licking events and the number of seconds each licking event lasted. These recordings were made for 50 minutes after the formalin injection. After the experiment, animals were killed with an overdose of CO2. (Euthanasia protocol, Eli Lilly Animal Use and Care Committee.)
Scoring in the formalin test was performed according to Coderre et al., 1993b and Abbott et al., 1995. (Coderre T. J., Fundytus M. E., McKenna J. E., Dalal S. and Melzack R. “The formalin test: a validation of the weighted-scores method of the behavioral pain rating,” Pain(1993b) 54: 43-50; and Abbott F. V., Franklin K. B. J. and Westbrook R. F. “The formalin test: scoring properties of the first and second phases of the pain response in rats,” Pain (1995) 60: 91-102.) The sum of time spent licking in seconds from time 0 to 5 minutes was considered the early phase while the late phase was taken as the sum of seconds spent licking from 15 to 40 minutes.
Data are presented as means with standard errors of means (±SEM). Data were evaluated by one-way analysis of variance (ANOVA) and the appropriate contrasts analyzed by Tukey's test and Dunnett “t” test for two-sided comparisons.

[3] = 3 mg/kg i.p., 30 min before formalin
[4] = 3 mg/kg p.o., 60 min before formalin

CNCCC(Oc1cccc2ccccc12)c1cccs1 (stereo not drawn) [duloxetine, N-methyl-3-(1-naphthalenyloxy)-3-(2-thienyl)propanamine]
effect on allodynia following partial ligation of the sciatic nerve (in words) ([1]; after acute or sub-chronic systemic administration): attenuates the allodynia
Allodynia Response ([1]; 15 mg/kg i.p., 1 hour pretreatment): 8.57 ± 1.72 g
Allodynia Response ([1]; 20 mg/kg p.o., 1 hour pretreatment): 8.53 ± 1.66 g
Allodynia Response ([1]; 20 mg/kg × 4 day p.o., sub-chronic pretreatment (once a day for four consecutive days)): 9.18 ± 2.95 g
Ataxia score 80 mins after drug, i.p. (Male Sprague-Dawley rats; 3 mg/kg i.p.): 33.35 ± 3.23 s
Ataxia score, 30 mins after drug, i.p. (Male Sprague-Dawley rats; 3 mg/kg i.p.): 34.27 ± 4.02 s
Ataxia Score, 60 mins after drug, p.o. (Male Sprague-Dawley rats; 3 mg/kg p.o.): 40.00 ± 0.00 s
Ataxia score 110 mins after drug, p.o. (Male Sprague-Dawley rats; 3 mg/kg p.o.): 40.00 ± 0.00 s
Ataxia score 80 mins after drug, i.p. (Male Sprague-Dawley rats; 10 mg/kg i.p.): 26.07 ± 6.24 s
Ataxia score, 30 mins after drug, i.p. (Male Sprague-Dawley rats; 10 mg/kg i.p.): 29.42 ± 6.71 s
Ataxia Score, 60 mins after drug, p.o. (Male Sprague-Dawley rats; 10 mg/kg p.o.): 39.11 ± 0.89 s
Ataxia score 110 mins after drug, p.o. (Male Sprague-Dawley rats; 10 mg/kg p.o.): 39.56 ± 0.44 s
Ataxia Score, 60 mins after drug, p.o. (Male Sprague-Dawley rats; 20 mg/kg p.o.): 40.00 ± 0.00 s
Ataxia score 110 mins after drug, p.o. (Male Sprague-Dawley rats; 20 mg/kg p.o.): 40.00 ± 0.00 s
Ataxia score 80 mins after drug, i.p. (Male Sprague-Dawley rats; 30 mg/kg i.p.): 25.52 ± 5.89 s
Ataxia score, 30 mins after drug, i.p. (Male Sprague-Dawley rats; 30 mg/kg i.p.): 24.75 ± 6.88 s
ataxia or neuromuscular effects in the rotorod test (in words) (Male Sprague-Dawley rats; at doses that caused analgesia): did not show ataxia or neuromuscular effects
Early Phase (sum of time spent licking, 0 to 5 minutes) [2, 3]: 32.78 ± 15.97 s
Late Phase (sum of seconds spent licking, 15 to 40 minutes) [2, 3]: 254.00 ± 45.87 s
Early Phase (sum of time spent licking, 0 to 5 minutes) [2, 4]: 21.78 ± 5.14 s
Late Phase (sum of seconds spent licking, 15 to 40 minutes) [2, 4]: 393.56 ± 26.74 s
Early Phase (sum of time spent licking, 0 to 5 minutes) ([2]; 10 mg/kg i.p., 30 min before formalin): 17.00 ± 5.83 s
Late Phase (sum of seconds spent licking, 15 to 40 minutes) ([2]; 10 mg/kg i.p., 30 min before formalin, p < 0.05 vs vehicle): 163.89 ± 54.14 s
Early Phase (sum of time spent licking, 0 to 5 minutes) ([2]; 10 mg/kg p.o., 60 min before formalin): 20.22 ± 5.29 s
Late Phase (sum of seconds spent licking, 15 to 40 minutes) ([2]; 10 mg/kg p.o., 60 min before formalin, p < 0.05 vs vehicle): 255.78 ± 38.22 s
Early Phase (sum of time spent licking, 0 to 5 minutes) ([2]; 15 mg/kg i.p., 30 min before formalin): 29.56 ± 16.30 s
Late Phase (sum of seconds spent licking, 15 to 40 minutes) ([2]; 15 mg/kg i.p., 30 min before formalin, p < 0.05 vs vehicle): 80.44 ± 36.22 s
Early Phase (sum of time spent licking, 0 to 5 minutes) ([2]; 20 mg/kg p.o., 60 min before formalin): 12.67 ± 3.61 s
Late Phase (sum of seconds spent licking, 15 to 40 minutes) ([2]; 20 mg/kg p.o., 60 min before formalin, p < 0.05 vs vehicle): 161.11 ± 31.77 s
effect on late phase response to formalin (in words) ([2]; i.p. and p.o. dosing): blocks the late phase response to formalin in a dose-dependent manner
